In US20240391889A1, “ANTIMICROBIAL COMPOUNDS AND THE METHODS OF USE” (priority 2021, published 2024):
Values after ≈ are worked out from the molar mass of the structure shown. Like-named read-outs stand apart in the source and are kept apart here. Numbered stars: 1 amine (or outer) side, 2 acyl side, 3 side chain; on linkers, the order of the positions; unused ones are H or OH. Square brackets hold non-standard residues; d marks the D form. Peptide text beside a SMILES is read from it. N(tridecyl)Gly = CCCCCCCCCCCCCNCC(=O)O; X1 = CC(c1ccccc1)N(CC(=O)[*:2])[*:1]; NFurfurylGly = O=C(O)CNCc1ccco1; Gly(N(CH2)3NH2) = NCCCNCC(=O)O; Nphe = O=C(O)CNCc1ccccc1; NPrGly = CCCNCC(=O)O; Nlys = NCCCCNCC(=O)O

Experiments:
[1] = system: C. albicans; assay type: cell-based, Candida albicans
Text: One of the most serious crises facing both new and existing antimicrobial compounds is the rapid development of resistance by pathogens to that compound, rendering it useless. This has been an issue observed with all major commercially available antimicrobial drugs and is an increasingly prevalent issue with antifungal drugs (Clatworthy et al., Nat. Chem. Biol. 3, 541-548 (2007); Wiederhold et al., Infect. Drug Resist. 10, 249-259 (2017)). The ability of C. albicans to gain resistance against RMG9-11 was evaluated using two techniques; serial and single passage. Ching et al. described a method for single passage assessment of gain of resistance, which was used here with RMG9-11 (Ching et al., Sci. Rep. 10, 8754 (2020)). Briefly, a single colony of C. albicans was incubated overnight in RPMI-MOPS. Fungal cultures were then incubated for either 24 or 48 hours with concentrations of RMG9-11 ranging from 0 to 80% MIC. […]
Gain of resistance to RMG9-11 by C. albicans was determined using a serial passage assay following previously published methods.43 Single colonies of C. albicans from a frozen stock streak plate were added to a saline solution (0.85%) to achieve an OD530=0.15-0.25. […]

[2] = system: Klebsiella pneumoniae ATCC 13883; test: Bacterial MIC assay, K. pneumoniae; assay type: cell-based; settings: 24 h, CAMHB
Text: This screening led to the discovery of RMG9-11 (FIG. 2C). The minimum inhibitory concentration (MIC) of resynthesized RMG9-11 was initially determined against C. albicans, C. neoformans, and the ESKAPE bacteria via CSLI guidelines (CLSI. Methods for Dilution Antimicrobial Susceptibility Tests for Bacteria That Grow Aerobically, 11th Edition. Clinical and Laboratory Standards Institute (2018); CLSI. Reference method for broth dilution antifungal susceptibility testing of yeasts; approved standard-third edition; CLSI document M27-A3. Clinical and Laboratory Standards Institute (2008)). […]
The minimum inhibitory concentration (MIC) of peptoids against the ESKAPE bacteria (Enterococcus faecium ATCC 6569; Staphylococcus aureus ATCC 29213; Klebsiella pneumoniae ATCC 13883; Acinetobacter baumanii ATCC 19606; Pseudomonas aeruginosa ATCC 25619; Enterococcus faecalis ATCC 29212; and Escherichia coli ATCC 25922) was determined following CLSI guidelines (CLSI. Methods for Dilution Antimicrobial Susceptibility Tests for Bacteria That Grow Aerobically, 11th Edition. Clinical and Laboratory Standards Institute, 2018). The MIC against Mycobacterium smegmatis was also determined following CLSI guidelines (Woods, G. L. et al. Susceptibility Testing of Mycobacteria, Nocardiae, and Other Aerobic Actinomycetes, 2nd edition. (2011)). […]

[3] = system: C. auris; test: MIC assay, C. auris; assay type: cell-based, Candida auris
[4] = system: Gram-negative and Gram-positive bacteria; assay type: cell-based; settings: with the exception of K. pnuemoniae
Text: The ESKAPE bacteria consist of the most common multidrug resistant and nosocomial bacterial pathogens including both Gram-positive and Gram-negative species (Pendleton et al., Expert Rev. Anti-infect. Ther. 11, 297-308 (2013)). […] The broad-spectrum antimicrobial activity of RMG9-11 naturally lead to concerns about mammalian cytotoxicity, especially since the membranes of fungi and mammals have similar phospholipid compositions.
The minimum inhibitory concentration (MIC) of peptoids against the ESKAPE bacteria (Enterococcus faecium ATCC 6569; Staphylococcus aureus ATCC 29213; Klebsiella pneumoniae ATCC 13883; Acinetobacter baumanii ATCC 19606; Pseudomonas aeruginosa ATCC 25619; Enterococcus faecalis ATCC 29212; and Escherichia coli ATCC 25922) was determined following CLSI guidelines (CLSI. Methods for Dilution Antimicrobial Susceptibility Tests for Bacteria That Grow Aerobically, 11th Edition. Clinical and Laboratory Standards Institute, 2018). The MIC against Mycobacterium smegmatis was also determined following CLSI guidelines (Woods, G. L. et al. Susceptibility Testing of Mycobacteria, Nocardiae, and Other Aerobic Actinomycetes, 2nd edition. (2011)). […] Following incubation for the ESKAPE bacteria, PRESTO BLUE (10 μL) was added to each well and incubated at 37° C. for one hour before measuring fluorescence on a SPECTRAMAX M5 plate reader (Ex. 555 nm; Em. 585 nm). […]

[5] = system: C. neoformans; assay type: cell-based, Cryptococcus neoformans
Text: This screening led to the discovery of RMG9-11 (FIG. 2C). The minimum inhibitory concentration (MIC) of resynthesized RMG9-11 was initially determined against C. albicans, C. neoformans, and the ESKAPE bacteria via CSLI guidelines (CLSI. Methods for Dilution Antimicrobial Susceptibility Tests for Bacteria That Grow Aerobically, 11th Edition. Clinical and Laboratory Standards Institute (2018); CLSI. Reference method for broth dilution antifungal susceptibility testing of yeasts; approved standard-third edition; CLSI document M27-A3. Clinical and Laboratory Standards Institute (2008)). […] C. albicans clinical isolates include a reference strain (M1), fluconazole susceptible strains (M4 and M6), and fluconazole resistant strains (M2, M3, M5, and M7). ATCC 64124 is multidrug resistant C. albicans strain that is resistant to amphotericin B, fluconazole, caspofungin, and flucytosine. All MICs were performed under CSLI guidelines in triplicate on at least three different days.
The minimum inhibitory concentration (MIC) of peptoids against fungal pathogens C. albicans and C. neoformans was determined following CLSI guidelines (Reference method for broth dilution antifungal susceptibility testing of yeasts; approved standard-third edition; CLSI document M27-A3.” CLSI. 2008.). Colonies were transferred from a streaked YPD plate to 0.85% saline to reach an OD530 between 0.18 and 0.25. This inoculant was diluted 1:100 into RPMI-MOPS and then further diluted 1:20 into RPMI-MOPS. 198 μL of inoculant was seeded into each well of a 96 well black-walled plate. 2-fold serial dilutions of 100× peptoid solutions were prepared in water and 2 μL of peptoid were added to each well in triplicate. […] MIC was defined as the lowest concentration of compound preventing fungal growth. This assay was repeated 3 times on separate days with each compound.

SMILES: CCCCCCCCCCCCCNCC(=O)N(CCC)CC(=O)N(CC(=O)N(CCCCN)CC(=O)N(CC(=O)N(CC(=O)N(CCCN)CC(N)=O)Cc1ccccc1)Cc1ccco1)C(C)c1ccccc1 (stereo not shown) [RMG9-11] (H-[N(tridecyl)Gly][NPrGly][X1][Nlys][NFurfurylGly][Nphe][Gly(N(CH2)3NH2)]-NH2)
- Serial Passage MIC ([1]; Treated: serial passage with 1 to 25% MIC RMG9-11): 6.25 µg/mL
- Serial Passage MIC ([1]; Untreated C. albicans): 6.25 µg/mL
- MIC K. pneumonia [2]: 50 µg/mL (≈ 47.9 µM)
- MIC C. auris [3]: 12.5 µg/mL (≈ 12 µM)
- activity against Gram-negative and Gram-positive bacteria (MIC) [4]: 3.13 to 12.5 µg/mL
- improvement of MIC C. neoformans vs C. albicans [5]: 2 fold
- MIC C. neoformans ([5]; 72 h): 3.13 µg/mL (≈ 3 µM)
